# From patent publication US4032654A, “Water-soluble, liquid concentrates of S-methyl-[(methyl-carbamoyl)oxy]-thioacetimidate and methyl N', N'-dimethyl-N-[(methyl-carbamoyl)oxy]-1-thiooxamimidate” (priority 1975, dated 1977)
# Test: physchem
# Method: Methomyl and oxamyl were added to various methanol:water solvent systems ranging from 100% CH3 OH to 40% CH3 OH:60% H2 O. The methomyl and oxamyl were dissolved separately or combined on a 1:1 weight ratio in the solvent systems at room temperature at a concentration exceeding the solubility limit at -6° C. Each sample was seeded with methomyl and/or oxamyl at -6° C. and allowed to crystallize until equilibrium was established. The supernatant liquid of each sample was assayed for methomyl and/or oxamyl by liquid chromatography.
compound,measurement,setting,value
CNC(=O)ON=C(C)SC [Methomyl],solubility,"40/60 ch3oh/h2o, Methomyl alone in solvent, alone, -6° C.",62 mg/mL
same,solubility,"40/60 ch3oh/h2o, both actives in solvent: Methomyl, with oxamyl 1:1 wt., 40/60 CH3OH/H2O, -6° C.",188 mg/mL
same,solubility,"50/50 ch3oh/h2o, Methomyl alone in solvent, alone, -6° C.",105 mg/mL
same,solubility,"50/50 ch3oh/h2o, both actives in solvent: Methomyl, with oxamyl 1:1 wt., 50/50 CH3OH/H2O, -6° C.",237 mg/mL
same,solubility,"60/40 ch3oh/h2o, Methomyl alone in solvent, alone, -6° C.",155 mg/mL
same,solubility,"60/40 ch3oh/h2o, both actives in solvent: Methomyl, with oxamyl 1:1 wt., 60/40 CH3OH/H2O, -6° C.",355 mg/mL
same,solubility,"70/30 ch3oh/h2o, Methomyl alone in solvent, alone, -6° C.",208 mg/mL
same,solubility,"70/30 ch3oh/h2o, both actives in solvent: Methomyl, with oxamyl 1:1 wt., 70/30 CH3OH/H2O, -6° C.",438 mg/mL
same,solubility,"80/20 ch3oh/h2o, Methomyl alone in solvent, alone, -6° C.",263 mg/mL
same,solubility,"80/20 ch3oh/h2o, both actives in solvent: Methomyl, with oxamyl 1:1 wt., 80/20 CH3OH/H2O, -6° C.",581 mg/mL
same,solubility,"90/10 ch3oh/h2o, Methomyl alone in solvent, alone, -6° C.",299 mg/mL
same,solubility,"90/10 ch3oh/h2o, both actives in solvent: Methomyl, with oxamyl 1:1 wt., 90/10 CH3OH/H2O, -6° C.",664 mg/mL
same,"Solubility, Methomyl alone in solvent","alone, 100/0 CH3OH/H2O, -6° C.",30.7 gms/100 gms
same,Solubility when dissolved together in the solvents taught,summary of Examples 2-7,increases in solubility occur
same,"Solubility, both actives in solvent: Methomyl","with oxamyl 1:1 wt., 100/0 CH3OH/H2O, -6° C.",63.9 gms/100 gms
